We go through two compounds from ChEMBL document CHEMBL1155696, “Enhanced cytotoxicity in a Z-photoisomer of a benzopyran derivative of propolis” (J Nat Prod, 2000).

Data set [1] can be described thus: Cytotoxicity against human HLC2 cells after 3 days by WST8 dye reduction assay. It counts as functional, cell-based. The settings on record: HLC2, 72 h. (In general: Tetrazolium dyes change colour on reduction, which living cells bring about.)
Data set [2] in a line: Cytotoxicity against human HLC2 cells after 6 days by WST8 dye reduction assay. In kind it is functional, cell-based. The following applies: HLC2, 144 h.
A short description of data set [3]: Photochemical stability exposed to visible light in methanol assessed as conversion to (Z)-2,2-Dimethyl-8-(3-methyl-2-butenyl)-benzopyran-6-propenoic acid after 7 days. The following applies: 168 h.
A further data set deals with HuH13. The data set is described as follows: Cytotoxicity against human HuH13 cells. In kind it is functional, cell-based.

Each structure is given as a SMILES string. Calls of active or inactive are those of the source. No cut-off for these calls is given here.

Consider `CC(C)=CCc1cc(/C=C/C(=O)O)cc2c1OC(C)(C)C=C2` [CULIFOLIN], for which the IC50 in data set [1] stood at 230 µM; in data set [2] it was 100 µM. For the same compound, in data set [3], the Activity came out at 71%. Besides, the result in the data set with HuH13 was Active.

With `CC(C)=CCc1cc(/C=C\C(=O)O)cc2c1OC(C)(C)C=C2`, the 50% inhibitory concentration (IC50) in data set [1] amounted to 34 µM; in data set [2] it was 10 µM. Further, the outcome with HuH13 was Active.

The IC50 is the concentration at which inhibition is half-maximal. Lower therefore signals greater potency in that assay.
